How the values were obtained:
Format in all cases: in vivo
Chenopodium album = test: Test Example 5: herbicidal effect by foliage application, plastic box (symbol O); settings: 320 g/ha, 3 weeks after application
Method in brief: (§1)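 Herbicide, formulated as an emulsion and diluted in water, is sprayed onto the aerial parts of 14-day seedlings. These were grown at 25° C. to 30° C. in sterilized diluvial soil; effects are graded after 3 weeks.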

Abutilon theophrasti = test: Test Example 5: herbicidal effect by foliage application, plastic box (symbol M); settings: 320 g/ha, 3 weeks after application
Method in brief: as §1

Digitaria ciliaris [1] = test: Test Example 5: herbicidal effect by foliage application, plastic box (symbol F); settings: 320 g/ha, 3 weeks after application
Method in brief: as §1

Amaranthus retroflexus = test: Test Example 4: herbicidal effect by soil treatment (symbol N); settings: application herbicide amount 320 g/ha
Method in brief: (§2)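 Seeds were sown in sterilized diluvial soil, covered with about 1.5 cm of soil, and the soil surface was sprayed with a water-diluted emulsion of the compound at a predetermined rate. Plants grew in a greenhouse at 25° C. to 30° C.; effects were scored visually 3 weeks after application.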

Setaria viridis [2] = test: Test Example 4: herbicidal effect by soil treatment (symbol G); settings: application herbicide amount 320 g/ha
Method in brief: as §2

rapeseed = test: Test Example 4: effect on crop by soil treatment (symbol g); settings: application herbicide amount 320 g/ha
Method in brief: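 Sterilized diluvial soil, spot sowing, ~1.5 cm soil cover; greenhouse 25–30° C.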

Avena fatua = test: Test Example 4: herbicidal effect by soil treatment (symbol I); settings: application herbicide amount 320 g/ha
Method in brief: as §2

Alopecurus myosuroides = test: Test Example 4: herbicidal effect by soil treatment (symbol J); settings: application herbicide amount 320 g/ha
Method in brief: as §2

Galium spurium = test: Test Example 5: herbicidal effect by foliage application, plastic box (symbol Q); settings: 320 g/ha, 3 weeks after application
Method in brief: as §1

Lolium multiflorum Lam. = test: Test Example 5: herbicidal effect by foliage application, plastic box (symbol K); settings: 320 g/ha, 3 weeks after application
Method in brief: as §1

Apera spica-venti = test: Test Example 5: herbicidal effect by foliage application, plastic box (symbol L); settings: 320 g/ha, 3 weeks after application
Method in brief: as §1

[3] = system: Echinochloa oryzacola Vasing.; test: Test Example 1: herbicidal activity, application before weed generation in submerged conditions (symbol A); settings: application herbicide amount 320 g/ha
Method in brief: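 Greenhouse growth at 25–30 °C lasted 3 weeks after treatment, when each weed was graded 0–5 by herbicidal ratio. Treatment was a diluted emulsion applied to the water surface of 4 cm-submerged alluvial soil on the sowing day.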

Setaria viridis [4] = test: Test Example 5: herbicidal effect by foliage application, plastic box (symbol G); settings: 320 g/ha, 3 weeks after application
Method in brief: as §1

Leptochloa chinensis = test: Test Example 3: herbicidal effect by foliage application, Wagner pot (symbol D); settings: application herbicide amount 320 g/ha
Method in brief: (§3)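 Foliar spray of water-diluted emulsion formulation at a predetermined herbicide amount onto 14-day-old plants in flooded alluvial soil (water depth 0.1–0.5 cm), greenhouse 25–30 °C; rice sown alongside. Scored 3 wk post-application on set criteria.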

Digitaria ciliaris [5] = test: Test Example 4: herbicidal effect by soil treatment (symbol F); settings: application herbicide amount 320 g/ha
Method in brief: as §2

[6] = system: Echinochloa crus-galli var. crus-galli; test: Test Example 3: herbicidal effect by foliage application, Wagner pot (symbol H); settings: application herbicide amount 320 g/ha
Method in brief: as §3

rice plant = test: Test Example 5: effect on crop by foliage application, plastic box (symbol b); settings: 320 g/ha, 3 weeks after application
Method in brief: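 Sterilized diluvial soil, plastic box (21 × 13 × 7 cm); spot sowing, ~1.5 cm soil cover; greenhouse 25–30° C.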

| Structure (SMILES) | O: Chenopodium album, herbicidal effect grade (Chenopodium album) | M: Abutilon theophrasti, herbicidal effect grade (Abutilon theophrasti) | F: Digitaria ciliaris, herbicidal effect grade (Digitaria ciliaris [1]) | N: Amaranthus retroflexus, herbicidal effect grade (Amaranthus retroflexus) | G: Setaria viridis, herbicidal effect grade (Setaria viridis [2]) | g: rapeseed, effect on crop grade (rapeseed) | I: Avena fatua, herbicidal effect grade (Avena fatua) | J: Alopecurus myosuroides, herbicidal effect grade (Alopecurus myosuroides) | Q: Galium spurium, herbicidal effect grade (Galium spurium) | K: Lolium multiflorum Lam., herbicidal effect grade (Lolium multiflorum Lam.) | L: Apera spica-venti, herbicidal effect grade (Apera spica-venti) | Herbicidal effect grade, A: Echinochloa oryzacola Vasing. [3] | G: Setaria viridis, herbicidal effect grade (Setaria viridis [4]) | herbicidal effect on D (Leptochloa chinensis), grade 0-5 (Leptochloa chinensis) | F: Digitaria ciliaris, herbicidal effect grade (Digitaria ciliaris [5]) | herbicidal effect on H (Echinochloa crus-galli var. crus-galli), grade 0-5 [6] | b: directly sowed rice plant, effect on crop grade (rice plant) | further results |
| --- | --- | --- | --- | --- | --- | --- | --- | --- | --- | --- | --- | --- | --- | --- | --- | --- | --- | --- |
| CCC(CCC1CC(O)=C(c2c(C)cc(C)cc2C)C1=O)=NOC (mixture of isomers) [4-001] | 0 (Herbicidal ratio of 5% or lower (almost no effect)) | 0 (Herbicidal ratio of 5% or lower (almost no effect)) | 3 (Herbicidal ratio of 40% or higher and lower than 70%) | 0 (Herbicidal ratio of 5% or lower (almost no effect)) | 0 (Herbicidal ratio of 5% or lower (almost no effect)) | 1 (Herbicidal ratio of 5% or higher and lower than 20%) | 0 (Herbicidal ratio of 5% or lower (almost no effect)) | 3 (Herbicidal ratio of 40% or higher and lower than 70%) | 0 (Herbicidal ratio of 5% or lower (almost no effect)) | 5 (Herbicidal ratio of 90% or more (almost completely withered)) | 2 (Herbicidal ratio of 20% or higher and lower than 40%) | 0 (Herbicidal ratio of 5% or lower (almost no effect)) | 1 (Herbicidal ratio of 5% or higher and lower than 20%) | 3 (Herbicidal ratio of 40% or higher and lower than 70%) | 2 (Herbicidal ratio of 20% or higher and lower than 40%) | 2 (Herbicidal ratio of 20% or higher and lower than 40%) | 4 (Herbicidal ratio of 70% or higher and lower than 90%) | – |
| CCc1cc(-n2cc(Cl)cn2)cc(C)c1C1=C(O)CC(CC(C)=NOC)C1=O (mixture of isomers) [6-005] | 3 (Herbicidal ratio of 40% or higher and lower than 70%) | 5 (Herbicidal ratio of 90% or more (almost completely withered)) | 5 (Herbicidal ratio of 90% or more (almost completely withered)) | 0 (Herbicidal ratio of 5% or lower (almost no effect)) | 5 (Herbicidal ratio of 90% or more (almost completely withered)) | 0 (Herbicidal ratio of 5% or lower (almost no effect)) | 4 (Herbicidal ratio of 70% or higher and lower than 90%) | 5 (Herbicidal ratio of 90% or more (almost completely withered)) | 3 (Herbicidal ratio of 40% or higher and lower than 70%) | 5 (Herbicidal ratio of 90% or more (almost completely withered)) | 5 (Herbicidal ratio of 90% or more (almost completely withered)) | 5 (Herbicidal ratio of 90% or more (almost completely withered)) | 5 (Herbicidal ratio of 90% or more (almost completely withered)) | 5 (Herbicidal ratio of 90% or more (almost completely withered)) | 5 (Herbicidal ratio of 90% or more (almost completely withered)) | 5 (Herbicidal ratio of 90% or more (almost completely withered)) | 5 (Herbicidal ratio of 90% or more (almost completely withered)) | – |
| CON=C(C)CC1CC(OCC(=O)OC)=C(c2c(C)cc(C)cc2C)C1=O (stereo not shown) [1-012] | 0 (Herbicidal ratio of 5% or lower (almost no effect)) | 0 (Herbicidal ratio of 5% or lower (almost no effect)) | 0 (Herbicidal ratio of 5% or lower (almost no effect)) | – | – | – | – | – | 0 (Herbicidal ratio of 5% or lower (almost no effect)) | 0 (Herbicidal ratio of 5% or lower (almost no effect)) | 0 (Herbicidal ratio of 5% or lower (almost no effect)) | 0 (Herbicidal ratio of 5% or lower (almost no effect)) | 0 (Herbicidal ratio of 5% or lower (almost no effect)) | 0 (Herbicidal ratio of 5% or lower (almost no effect)) | – | 0 (Herbicidal ratio of 5% or lower (almost no effect)) | 0 (Herbicidal ratio of 5% or lower (almost no effect)) | N (Amaranthus retroflexus) herbicidal effect grade (Amaranthus retroflexus): 0 (Herbicidal ratio of 5% or lower (almost no effect)); G (Setaria viridis) herbicidal effect grade (Setaria viridis [2]): 0 (Herbicidal ratio of 5% or lower (almost no effect)); g (rapeseed) effect on crop grade (rapeseed): 0 (Herbicidal ratio of 5% or lower (almost no effect)); I (Avena fatua) herbicidal effect grade (Avena fatua): 0 (Herbicidal ratio of 5% or lower (almost no effect)); J (Alopecurus myosuroides) herbicidal effect grade (Alopecurus myosuroides): 0 (Herbicidal ratio of 5% or lower (almost no effect)); F (Digitaria ciliaris) herbicidal effect grade (Digitaria ciliaris [5]): 0 (Herbicidal ratio of 5% or lower (almost no effect)) |
| CCc1cc(Br)cc(C)c1C1=C(O)CC(CC(C)=NOC)C1=O (stereo not shown) [6-001] | 0 (Herbicidal ratio of 5% or lower (almost no effect)) | 0 (Herbicidal ratio of 5% or lower (almost no effect)) | 5 (Herbicidal ratio of 90% or more (almost completely withered)) | 0 (Herbicidal ratio of 5% or lower (almost no effect)) | 5 (Herbicidal ratio of 90% or more (almost completely withered)) | 2 (Herbicidal ratio of 20% or higher and lower than 40%) | 5 (Herbicidal ratio of 90% or more (almost completely withered)) | 5 (Herbicidal ratio of 90% or more (almost completely withered)) | 0 (Herbicidal ratio of 5% or lower (almost no effect)) | 5 (Herbicidal ratio of 90% or more (almost completely withered)) | 5 (Herbicidal ratio of 90% or more (almost completely withered)) | 5 (Herbicidal ratio of 90% or more (almost completely withered)) | 5 (Herbicidal ratio of 90% or more (almost completely withered)) | 5 (Herbicidal ratio of 90% or more (almost completely withered)) | 5 (Herbicidal ratio of 90% or more (almost completely withered)) | 5 (Herbicidal ratio of 90% or more (almost completely withered)) | 5 (Herbicidal ratio of 90% or more (almost completely withered)) | – |
| CON=C(C)CC1CC(O)=C(c2c(C)cc(-n3cc(Cl)cn3)cc2C)C1=O (mixture of isomers) [6-004] | 3 (Herbicidal ratio of 40% or higher and lower than 70%) | 3 (Herbicidal ratio of 40% or higher and lower than 70%) | 5 (Herbicidal ratio of 90% or more (almost completely withered)) | 4 (Herbicidal ratio of 70% or higher and lower than 90%) | 5 (Herbicidal ratio of 90% or more (almost completely withered)) | 4 (Herbicidal ratio of 70% or higher and lower than 90%) | 4 (Herbicidal ratio of 70% or higher and lower than 90%) | 5 (Herbicidal ratio of 90% or more (almost completely withered)) | 3 (Herbicidal ratio of 40% or higher and lower than 70%) | 5 (Herbicidal ratio of 90% or more (almost completely withered)) | 5 (Herbicidal ratio of 90% or more (almost completely withered)) | 5 (Herbicidal ratio of 90% or more (almost completely withered)) | 5 (Herbicidal ratio of 90% or more (almost completely withered)) | 5 (Herbicidal ratio of 90% or more (almost completely withered)) | 5 (Herbicidal ratio of 90% or more (almost completely withered)) | 5 (Herbicidal ratio of 90% or more (almost completely withered)) | 5 (Herbicidal ratio of 90% or more (almost completely withered)) | – |

Reference: US11000033B2, “Ketone or oxime compound, and herbicide” (NISSAN CHEMICAL CORPORATION, priority 2014, dated 2021)
